Experimental data published in US20230111310A1, “CARBOXYLIC ACID DERIVATIVE-SUBSTITUTED IMINO ARYL COMPOUND, PREPARATION METHOD THEREFOR, HERBICIDAL COMPOSITION AND USE THEREOF” (Qingdao Kingagroot Chemical Compound Co., Ltd., priority 2020, published 2023).

Columns and labels:
Type in all cases: in vivo
Abutilon theophrasti [1] = test: Weeding effect in post-emergence stage; settings: for Weeding effect in post-emergence stage, Abutilon theophrasti (level): fresh weight control rate level
In short: (§1)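 Read-out is growth control rate, counted 3 weeks post-spray and averaged over three repeats. Greenhouse plants at the 2-3 leaf stage received spray-tower application at 500, 250, 125, 60, 30, 15 or 7.5 g/ha, with methyl oleate EC (1.5 liter/ha) and Tween 80 added.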

Alopecurus japonicus = test: Weeding effect in post-emergence stage; settings: for Weeding effect in post-emergence stage, Alopecurus japonicus (level): fresh weight control rate level
In short: as §1

Digitaria sanguinalis = test: Weeding effect in post-emergence stage; settings: for Weeding effect in post-emergence stage, Digitaria sanguinalis (level): fresh weight control rate level
In short: as §1

Eleusine indica = test: Weeding effect in post-emergence stage; settings: for Weeding effect in post-emergence stage, Eleusine indica (level): fresh weight control rate level
In short: as §1

Setaria viridis [2] = test: Weeding effect in post-emergence stage; settings: for Weeding effect in post-emergence stage, Setaria viridis (level): fresh weight control rate level
In short: as §1

Echinochloa crusgalli = test: Weeding effect in post-emergence stage; settings: for Weeding effect in post-emergence stage, Echinochloa crusgalli (level): fresh weight control rate level
In short: as §1

Abutilon theophrasti [3] = test: Weeding effect in pre-emergence stage; settings: 30 g/ha, 4 weeks
Procedure: (§2) The activity level criteria for plant damage (i.e., growth control rate) are as follows:
(§3) The aforementioned seeds of monocotyledonous and dicotyledonous weeds and main crops were put into a plastic pot loaded with soil and covered with 0.5-2 cm soil. The test compounds of the present invention was dissolved with acetone, then added with tween 80, diluted by a certain amount of water to reach a certain concentration, and sprayed immediately after sowing. The obtained seeds were incubated for 4 weeks in the greenhouse after spraying and the test results were observed. It was observed that the herbicide mostly had excellent effect at the application rate of 500, 250, 125, 60, 30, 15, 7.5 g/ha, especially to weeds such as Echinochloa crusgalli. Digitaria sanguinalis and Abutilon theophrasti, etc. And many compounds had good selectivity for corn, cotton, wheat, rice, soybean, and peanut etc. In addition, evaluate the weed control effect with the above activity standard level.

Amaranthus retroflexus = test: Weeding effect in pre-emergence stage; settings: 30 g/ha, 4 weeks
Procedure: as §2, §3

Capsella bursa-pastoris = test: Weeding effect in pre-emergence stage; settings: 30 g/ha, 4 weeks
Procedure: as §2, §3

Descurainia sophia = test: Weeding effect in pre-emergence stage; settings: 30 g/ha, 4 weeks
Procedure: as §2, §3

Setaria viridis [4] = test: Weeding effect in pre-emergence stage; settings: 30 g/ha, 4 weeks
Procedure: as §2, §3

Veronica didyma Tenore = test: Weeding effect in pre-emergence stage; settings: 30 g/ha, 4 weeks
Procedure: as §2, §3

Peanut = test: Pre-emergence stage, crop selectivity; settings: 30 g/ha, 4 weeks
Procedure: as §2, §3

Soybeans = test: Pre-emergence stage, crop selectivity; settings: 30 g/ha, 4 weeks
Procedure: as §2, §3

corn = test: Pre-emergence stage, crop selectivity; settings: 30 g/ha, 4 weeks
Procedure: as §2, §3

cotton = test: Pre-emergence stage, crop selectivity; settings: 30 g/ha, 4 weeks
Procedure: as §2, §3

[5] = Dose 15 g/ha, level of fresh weight growth control rate

Compound	Weeding effect in post-emergence stage, Abutilon theophrasti (level) (Abutilon theophrasti [1]; Dose 15 g/ha)	Weeding effect in post-emergence stage, Alopecurus japonicus (level) (Alopecurus japonicus; Dose 15 g/ha)	Weeding effect in post-emergence stage, Digitaria sanguinalis (level) (Digitaria sanguinalis; Dose 15 g/ha)	Weeding effect in post-emergence stage, Eleusine indica (level) (Eleusine indica; Dose 15 g/ha)	Weeding effect in post-emergence stage, Setaria viridis (level) (Setaria viridis [2]; Dose 15 g/ha)	Weeding effect in post-emergence stage, Echinochloa crusgalli (level) (Echinochloa crusgalli; Dose 15 g/ha)	Weeding effect in post-emergence stage, Abutilon theophrasti (level) (Abutilon theophrasti [1]; Dose 30 g/ha)	Weeding effect in post-emergence stage, Alopecurus japonicus (level) (Alopecurus japonicus; Dose 30 g/ha)	Weeding effect in post-emergence stage, Digitaria sanguinalis (level) (Digitaria sanguinalis; Dose 30 g/ha)	Weeding effect in post-emergence stage, Eleusine indica (level) (Eleusine indica; Dose 30 g/ha)	Weeding effect in post-emergence stage, Setaria viridis (level) (Setaria viridis [2]; Dose 30 g/ha)	Weeding effect in post-emergence stage, Echinochloa crusgalli (level) (Echinochloa crusgalli; Dose 30 g/ha)	other results
CCOC(=O)[C@@H](C)O/N=C/c1cc(-n2c(=O)n(C)c(=S)n(C)c2=O)c(F)cc1Cl [2(R)]	–	–	–	–	–	–	–	–	–	–	–	–	Weeding effect in post-emergence stage, Abutilon theophrasti (Abutilon theophrasti [1]; [5]): 5 (Level 5: growth control rate is above 85%); Weeding effect in post-emergence stage, Alopecurus japonicus (Alopecurus japonicus; [5]): 5 (Level 5: growth control rate is above 85%); Weeding effect in post-emergence stage, Digitaria sanguinalis (Digitaria sanguinalis; [5]): 5 (Level 5: growth control rate is above 85%); Weeding effect in post-emergence stage, Eleusine indica (Eleusine indica; [5]): 5 (Level 5: growth control rate is above 85%); Weeding effect in post-emergence stage, Setaria viridis (Setaria viridis [2]; [5]): 5 (Level 5: growth control rate is above 85%); Weeding effect in post-emergence stage, Echinochloa crusgalli (Echinochloa crusgalli; [5]): 5 (Level 5: growth control rate is above 85%); activity level (growth control rate) Abutilon theophrasti (Abutilon theophrasti [3]): 5 (Level 5: growth control rate is above 85%); activity level (growth control rate) Amaranthus retroflexus (Amaranthus retroflexus): 5 (Level 5: growth control rate is above 85%); activity level (growth control rate) Capsella bursa-pastoris (Capsella bursa-pastoris): 5 (Level 5: growth control rate is above 85%); activity level (growth control rate) Descurainia sophia (Descurainia sophia): 5 (Level 5: growth control rate is above 85%); activity level (growth control rate) Setaria viridis (Setaria viridis [4]): 5 (Level 5: growth control rate is above 85%); activity level (growth control rate) Veronica didyma Tenore (Veronica didyma Tenore): 5 (Level 5: growth control rate is above 85%); plant damage level Peanut (Peanut): 0 (Level 0: growth control rate is less than 5%); plant damage level Soybeans (Soybeans): 0 (Level 0: growth control rate is less than 5%); plant damage level Corn (corn): 0 (Level 0: growth control rate is less than 5%); plant damage level Cotton (cotton): 0 (Level 0: growth control rate is less than 5%)
COC(=O)C(C)SN=Cc1cc(-n2c(=O)n(C)c(=S)n(C)c2=O)c(F)cc1Cl (stereo not shown) [Compound 692]	5 (Level 5: growth control rate is above 85%)	5 (Level 5: growth control rate is above 85%)	5 (Level 5: growth control rate is above 85%)	5 (Level 5: growth control rate is above 85%)	5 (Level 5: growth control rate is above 85%)	5 (Level 5: growth control rate is above 85%)	–	–	–	–	–	–	–
COC(=O)C(C)SN=Cc1cc(-n2c(=O)cc(C(F)(F)F)n(C)c2=O)c(F)cc1Cl (stereo not shown) [Compound 730]	5 (Level 5: growth control rate is above 85%)	5 (Level 5: growth control rate is above 85%)	5 (Level 5: growth control rate is above 85%)	5 (Level 5: growth control rate is above 85%)	5 (Level 5: growth control rate is above 85%)	5 (Level 5: growth control rate is above 85%)	–	–	–	–	–	–	–
COC(=O)C(C)NN=Cc1cc(-n2c(=O)n(C)c(=S)n(C)c2=O)c(F)cc1Cl (stereo not shown) [Compound 881]	–	–	–	–	–	–	5 (Level 5: growth control rate is above 85%)	5 (Level 5: growth control rate is above 85%)	5 (Level 5: growth control rate is above 85%)	5 (Level 5: growth control rate is above 85%)	5 (Level 5: growth control rate is above 85%)	5 (Level 5: growth control rate is above 85%)	–
CC(C)OC(=O)C(C)N(C)N=Cc1cc(-n2c(=O)n(C)c(=S)n(C)c2=O)c(F)cc1Cl (stereo not shown) [Compound 885]	–	–	–	–	–	–	5 (Level 5: growth control rate is above 85%)	5 (Level 5: growth control rate is above 85%)	5 (Level 5: growth control rate is above 85%)	5 (Level 5: growth control rate is above 85%)	5 (Level 5: growth control rate is above 85%)	5 (Level 5: growth control rate is above 85%)	–
COC(=O)C(C)NN=Cc1cc(-n2c(=O)cc(C(F)(F)F)n(C)c2=O)c(F)cc1Cl (stereo not shown) [Compound 919]	–	–	–	–	–	–	5 (Level 5: growth control rate is above 85%)	5 (Level 5: growth control rate is above 85%)	5 (Level 5: growth control rate is above 85%)	5 (Level 5: growth control rate is above 85%)	5 (Level 5: growth control rate is above 85%)	5 (Level 5: growth control rate is above 85%)	–
CO/N=C/c1cc(-n2c(=O)n(C)c(=S)n(C)c2=O)c(F)cc1Cl [Control compound A, reference compound]	3 (Level 3: growth control rate is greater than or equal to 40% and less than 60%)	0 (Level 0: growth control rate is less than 5%)	1 (Level 1: growth control rate is greater than or equal to 5% and less than 20%)	1 (Level 1: growth control rate is greater than or equal to 5% and less than 20%)	1 (Level 1: growth control rate is greater than or equal to 5% and less than 20%)	0 (Level 0: growth control rate is less than 5%)	–	–	–	–	–	–	–
CCOC(=O)CO/N=C/c1cc(-n2c(=O)cc(C(F)(F)F)[nH]c2=O)ccc1Cl [Control compound B, reference compound]	3 (Level 3: growth control rate is greater than or equal to 40% and less than 60%)	1 (Level 1: growth control rate is greater than or equal to 5% and less than 20%)	2 (Level 2: growth control rate is greater than or equal to 20% and less than 40%)	1 (Level 1: growth control rate is greater than or equal to 5% and less than 20%)	2 (Level 2: growth control rate is greater than or equal to 20% and less than 40%)	2 (Level 2: growth control rate is greater than or equal to 20% and less than 40%)	–	–	–	–	–	–	–
CO/N=C/c1cc(-n2c(=O)cc(C(F)(F)F)n(N)c2=O)c(F)cc1Cl [Control compound C, reference compound]	2 (Level 2: growth control rate is greater than or equal to 20% and less than 40%)	1 (Level 1: growth control rate is greater than or equal to 5% and less than 20%)	2 (Level 2: growth control rate is greater than or equal to 20% and less than 40%)	1 (Level 1: growth control rate is greater than or equal to 5% and less than 20%)	2 (Level 2: growth control rate is greater than or equal to 20% and less than 40%)	2 (Level 2: growth control rate is greater than or equal to 20% and less than 40%)	–	–	–	–	–	–	–
CCOC(=O)CO/N=C/c1cccc(-n2c(=O)cc(C(F)(F)F)[nH]c2=O)c1 [Control compound F, reference compound]	–	–	–	–	–	–	–	–	–	–	–	–	Weeding effect in post-emergence stage, Abutilon theophrasti (level) (Abutilon theophrasti [1]; Dose 60 g/ha): 2 (Level 2: growth control rate is greater than or equal to 20% and less than 40%); Weeding effect in post-emergence stage, Alopecurus japonicus (level) (Alopecurus japonicus; Dose 60 g/ha): 0 (Level 0: growth control rate is less than 5%); Weeding effect in post-emergence stage, Digitaria sanguinalis (level) (Digitaria sanguinalis; Dose 60 g/ha): 1 (Level 1: growth control rate is greater than or equal to 5% and less than 20%); Weeding effect in post-emergence stage, Eleusine indica (level) (Eleusine indica; Dose 60 g/ha): 1 (Level 1: growth control rate is greater than or equal to 5% and less than 20%); Weeding effect in post-emergence stage, Setaria viridis (level) (Setaria viridis [2]; Dose 60 g/ha): 1 (Level 1: growth control rate is greater than or equal to 5% and less than 20%); Weeding effect in post-emergence stage, Echinochloa crusgalli (level) (Echinochloa crusgalli; Dose 60 g/ha): 0 (Level 0: growth control rate is less than 5%)
